Data taken from patent US12653899B2, “Multi-targeted, tunable, sustained delivery of payloads to charged avascular tissues” (Massachusetts Institute of Technology, priority 2019, dated 2026).

Tested on: human ankle cartilage explants treated with IL-1β
Assay: IL-1β cytokine challenge model, sGAG biosynthesis rate in human ankle cartilage explants
Format: cell-based
Settings: for rescue of the biosynthesis loss caused by human IL-1β: days 6-8
Experimental: Cartilage was harvested from the ankles of a donor (Collins Grade 1) and a donor (Collins Grade 1). Cartilage explants were equilibrated in culture media for 2 days after harvest. […] These were cut down to 1 mm thickness and allowed to equilibrate for a further 2 days before experiments were set up. Human IL-1β was used to induce osteoarthritis-like changes in cartilage. Experiments were set up to identify IL-1β doses at which 40 nM of free IGF-1 can rescue the IL-1β induced biosynthesis loss in cartilage. A dose response experiment in which single doses of (+9GFP)-(GGGGS)4-(IGF-1) (SEQ ID NO: 7) and (+9GFP)-(EAAAK)3-(IGF-1) (SEQ ID NO: 8) were added along with 100 pg/ml human IL-1β was also set up.
Experimental groups (N=8 to 10 cartilage explants in each group): Untreated control (Ctrl in FIG. 6A and FIG. 6B), 10 pg/mL human IL-1β (10 pg/ml IL-1b in FIG. 6A and FIG. 6B), 10 pg/mL human IL-1β+40 nM IGF-1 (10 pg/ml IL-1b+40 nM IGF-1 in FIG. 6A and FIG. 6B), 100 pg/mL human IL-1β (100 pg/ml IL-1b in FIG. 6A and FIG. 6B), 100 pg/mL human IL-1β+40 nM IGF-1 (100 pg/ml IL-1b+40 nM IGF-1 in FIG. 6A and FIG. 6B), 500 pg/mL human IL-1β (500 pg/ml IL-1b in FIG. 6A and […]), 500 pg/mL human IL-1β+40 nM IGF-1 (500 pg/ml IL-1b+40 nM IGF-1 in FIG. 6A and FIG. 6B), 1000 pg/mL human IL-1β (1 ng/ml IL-1b in FIG. 6A and FIG. 6B), 1000 pg/mL human IL-1β+40 nM IGF-1 (1 ng/ml IL-1b+40 nM IGF-1 in FIG. 6A and FIG. 6B). Media changes were performed every 2 days and the experiment was terminated after 8 days.
Chondrocyte biosynthesis rate (primarily aggrecan synthesis) was measured between days 6 and 8 of the experiment using a 35S-sulfate radiolabel. Statistics: 1-way ANOVA with post-hoc Tukey's HSD test.
This experiment was set up with cartilage explants from the donor ankle. Experimental groups (N=8 to 10 cartilage explants in each group): Untreated control (Ctrl in FIG. 6C), Continuous human IL-1β control (100 pg/ml dose added with every media change) (IL-1b in FIG. 6C), Continuous human IL-1β+continuous free IGF-1 control (100 pg/ml human IL-1β and 40 nM free IGF-1 dose added with every media change) (IL-1b+IGF1 FIG. 6C), Continuous human IL-1β+(+9GFP)-(GGGGS)4-(IGF-1) (SEQ ID NO: 7) 500 nM single dose (100 pg/ml human IL-1β added with every media change; Single 500 nM fusion protein dose added on Day 0) (IL-1b+0.5 μM Flex-1 in FIG. 6C), Continuous human IL-1β+(+9GFP)-(GGGGS)4-(IGF-1) (SEQ ID NO: 7) 1 μM single dose (100 pg/ml human IL-1β added with every media change; Single 1 μM fusion protein dose added on Day 0) (IL-1b+1 μM Flex-1 in FIG. 6C), Continuous human IL-1β+(+9GFP)-(EAAAK)3-(IGF-1) (SEQ ID NO: 8) 500 nM single dose (100 pg/ml human IL-1β added with every media change; Single 500 nM fusion protein dose added on Day 0), Continuous human IL-1β+(+9GFP)-(EAAAK)3-(IGF-1) (SEQ ID NO: 8) 1 μM single dose (100 pg/ml human IL-1β added with every media change; Single 1 μM fusion protein dose added on Day 0) (IL-1b+1 μM Rig-1 in FIG. 6C).
Preliminary dose response experiments were performed to test the effects of human IL-1β (PeproTech, Rocky Hill, NJ) on human ankle cartilage. Ankle cartilage explants from two different donors (equilibrated in culture medium post-harvest) were cultured in serum-free low glucose medium (same composition as equilibration medium) and treated with continuous IL-1β doses ranging from 10 pg/ml to 1 ng/ml for 8 days. The experiments also included groups of explants that were treated with 300 ng/ml free IGF-1 at each dose level of IL-1β. Based on the results of these experiments, 100 pg/ml IL-1β was chosen as the dose used for the fusion protein dose response experiments. In these experiments, ankle and knee cartilage explants (equilibrated in culture medium post-harvest) were treated continuously with IL-1β and received single doses of fusion proteins (ranging from 39.2 nM to 2 μM) at the start of the experiments. […]

[1] = single 2 μM dose, 100 pg/ml IL-1β, 10-day experiment (FIG. 15B)

Substance | rescue of the biosynthesis loss caused by human IL-1β (both dose levels (single 500 nM and 1 μM), 100 pg/ml human IL-1β, donor) | rescue of the loss of biosynthesis caused by IL-1β (single 1 μM dose, 100 pg/ml IL-1β, 7-day experiment (FIG. 15A)) | rescue of the loss of biosynthesis caused by IL-1β [1] | rescue of the loss of biosynthesis caused by IL-1β (single 1 μM dose, 100 pg/ml IL-1β, 10-day experiment (FIG. 15B)) | rescue of the loss of biosynthesis caused by IL-1β (single 2 μM dose, 100 pg/ml IL-1β, 7-day experiment (FIG. 15A)) | rescue of the biosynthesis loss caused by human IL-1β (40 nM free IGF-1, 100 pg/ml human IL-1β) | rescue of the biosynthesis loss caused by human IL-1β (40 nM free IGF-1, 500 pg/ml and 1000 pg/ml human IL-1β) | biosynthesis rate versus untreated control (300 ng/ml IGF-1 + 10 pg/ml human IL-1β, both donors) | biosynthesis rate versus untreated control (300 ng/ml IGF-1 + 100 pg/ml human IL-1β, both donors) | biosynthesis rate versus untreated control (300 ng/ml IGF-1 + 500 pg/ml or 1 ng/ml human IL-1β, donor) | rescue of biosynthesis loss (continuous free IGF-1 300 ng/ml, 100 pg/ml IL-1β, 7-day and 10-day experiments) | rescue of biosynthesis loss (continuous free IGF-1, human IL-1β 1 ng/ml)
(+9GFP)-(EAAAK)3-(IGF-1): fusion protein of +9 GFP and human IGF-1 with rigid (EAAAK)3 linker, SEQ ID NO: 8 | able to rescue | partial rescue | partially rescued | – | – | – | – | – | – | – | – | –
(+9GFP)-(GGGGS)4-(IGF-1): fusion protein of +9 GFP and human IGF-1 with flexible (GGGGS)4 linker, SEQ ID NO: 7 | – | – | partially rescued | partially rescued | completely rescue | – | – | – | – | – | – | –
IGF-1: free recombinant human IGF-1 (PeproTech), pro-anabolic growth factor used as the positive control | – | – | – | – | – | completely rescue | partial rescue | surpassed the untreated control biosynthesis | not statistically significantly different from the untreated control | significantly lower biosynthesis compared to the untreated control | complete rescue | could not rescue
